What all share (format): in vivo, Sprague-Dawley rats
Assay [1] deals with osteoarthritis-induced rats. In words: Change in knee joint thickness, osteoarthritis-induced rats. To be noted: diclofenac sodium 2 mg/kg subcutaneously once a day for 84 days. How it is done:
One hundred and twenty (120) 6-week-old male Sprague-Dawley rats (SLC, Japan) were used for test after accommodation for 7 days. All the test animals were kept in a polycarbonate cage, four or five each, and reared in a laboratory with temperature (20-25° C.) and humidity (40-45%) controlled. The light/dark cycle was 12 hours:12 hours, and feed (Samyang Corporation, Korea) and drinking water well provided freely. All the test animals had been fasted for at least 18 hours before sacrificing. They were treated according to “Guide for the Care and Use of Laboratory Animals by Institute of Laboratory Animal Resources, Commission on Life Science, National Research Council, USA on 1996, Washington D.C.”. On day 7 after joint surgery, the rats were grouped into 7 groups as described in Table 4 based on joint thickness and body weight. 8 rats were selected from each group (56 in total) for test. […] The joint thickness of the rats in the control groups and test groups was measured using calipers. […] Percent change between the normal control group and the osteoarthritis-induced control group was calculated by Equation 1 in order to evaluate the degree of inducement of osteoarthritis. Also, percent change between the cell administration group and the osteoarthritis-induced control group was calculated by Equation 2 in order to more clearly represent the efficacy of the administered cells. […]

In assay [2] the test system is osteoarthritis-induced rats. In words: Change in maximum knee joint angle, osteoarthritis-induced rats. The following applies: diclofenac sodium 2 mg/kg subcutaneously once a day for 84 days; after 84 days. As to the method:
One hundred and twenty (120) 6-week-old male Sprague-Dawley rats (SLC, Japan) were used for test after accommodation for 7 days. All the test animals were kept in a polycarbonate cage, four or five each, and reared in a laboratory with temperature (20-25° C.) and humidity (40-45%) controlled. The light/dark cycle was 12 hours:12 hours, and feed (Samyang Corporation, Korea) and drinking water well provided freely. All the test animals had been fasted for at least 18 hours before sacrificing. They were treated according to “Guide for the Care and Use of Laboratory Animals by Institute of Laboratory Animal Resources, Commission on Life Science, National Research Council, USA on 1996, Washington D.C.”. […]
The administration groups of the drug and cell were sacrificed after 84 days. After taking out the right hind leg from the hip joint and removing nearby skin, connective tissues and muscles, the maximum knee joint angle was measured with the theoretical maximum as 0°. […]
Percent change between the normal control group and the osteoarthritis-induced control group was calculated by Equation 1 in order to evaluate the degree of inducement of osteoarthritis. Also, percent change between the cell administration group and the osteoarthritis-induced control group was calculated by Equation 2 in order to more clearly represent the efficacy of the administered cells. […]

Assay [3] concerns osteoarthritis-induced rats. In words: Histopathological analysis of knee cartilage: Mankin score. The following applies: diclofenac sodium 2 mg/kg subcutaneously once a day for 84 days. As to the method: (§1) One hundred and twenty (120) 6-week-old male Sprague-Dawley rats (SLC, Japan) were used for test after accommodation for 7 days. All the test animals were kept in a polycarbonate cage, four or five each, and reared in a laboratory with temperature (20-25° C.) and humidity (40-45%) controlled. The light/dark cycle was 12 hours:12 hours, and feed (Samyang Corporation, Korea) and drinking water well provided freely. All the test animals had been fasted for at least 18 hours before sacrificing. They were treated according to “Guide for the Care and Use of Laboratory Animals by Institute of Laboratory Animal Resources, Commission on Life Science, National Research Council, USA on 1996, Washington D.C.”. On day 7 after joint surgery, the rats were grouped into 7 groups as described in Table 4 based on joint thickness and body weight. 8 rats were selected from each group (56 in total) for test.
(§2) The cells were suspended in CSBM at four different concentrations (high concentration: 9.6×10^6 cells/rat, intermediate high concentration: 4.8×10^6 cells/rat, intermediate low concentration: 2.4×10^6 cells/rat, low concentration: 1.2×10^6 cells/rat). […] For the normal group and the osteoarthritis-induced control group, only the CSBM was administered into the articular capsule.
For histopathological observation and analysis of the cartilage Mankin score and cartilage thickness were measured (Table 9). Mankin score is frequently used to evaluate arthritis. A higher score is known to be related with higher inducement of osteoarthritis (Armstrong et al., 1994; Rezende et al., 2006).
The articular capsule taken from the knee joint of each control group and test group was fixed for 5 days in 10% neutral-buffered formalin (NBF) and decalcified in decalcifying solution (24.4% formic acid, and 0.5 N sodium hydroxide). The decalcifying solution was replaced once a day for 5 days. After the decalcification, the median joint parts of the articular capsule were cut transversely and embedded in paraffin. After preparing 3-4 μm thick tissue sections, followed by deparaffinization and hydration, the cartilage was observed after hematoxylin & eosin (H&E) staining and safranin O staining (Camplejohn and Allard, 1988; Kahveci et al., 2000; Tran et al., 2000).
Mankin score was measured by comparing damage to the knee joint tissue with that of the normal control group. Cartilage thickness of the tibia and the femur was measured by histomorphometry using an automatic image analyzer (DMI-300, DMI, Korea).
Mankin Score is Given by the Sum.
Percent change (%) between the cell administration group and the osteoarthritis-induced control group=[(Value of the cell administration group−Value of the osteoarthritis-induced control group)/Value of the osteoarthritis-induced control group]×100 Equation 2

The test system of assay [4] is osteoarthritis-induced rats. In words: Knee cartilage thickness by histomorphometry. The following applies: diclofenac sodium 2 mg/kg subcutaneously once a day for 84 days.
Method: The articular capsule taken from the knee joint of each control group and test group was fixed for 5 days in 10% neutral-buffered formalin (NBF) and decalcified in decalcifying solution (24.4% formic acid, and 0.5 N sodium hydroxide). The decalcifying solution was replaced once a day for 5 days. After the decalcification, the median joint parts of the articular capsule were cut transversely and embedded in paraffin. […]
Mankin score was measured by comparing damage to the knee joint tissue with that of the normal control group. Cartilage thickness of the tibia and the femur was measured by histomorphometry using an automatic image analyzer (DMI-300, DMI, Korea). […]
Assay [5] deals with osteoarthritis-induced rats. In words: Growth of chondrocytes in knee cartilage (BrdU labelling). The following applies: diclofenac sodium 2 mg/kg subcutaneously once a day for 84 days. How it is done: as §1, §2
Chondrocytes growing in the articular capsule were labeled with BrdU in order to investigate their growth due to the administration of the cartilage-derived stem cells. Since the cells labeled with BrdU are those grown after the injection of BrdU, the growth of chondrocytes can be analyzed.
5-Bromo-2′-deoxyuridine (50 mg/kg, BrdU, MP Biomedicals, OH, USA) diluted in physiological saline to a concentration of 2 mL/kg was intraabdominally injected once 72 hours before the sacrificing of the rats of the control groups and test groups. Then, immunohistochemical staining was performed using BrdU antibody (Hwang et al., 2000; Moore et al., 2005; Ganey et al., 2003; Ito et al., 1998; Tang et al., 2007).
The expression pattern of BrdU was investigated using the Vector Elite ABC kit (Vector Lab. Inc., CA., USA). After washing the tissue with DPBS, reaction was performed in 3% hydrogen peroxide (H2O2) solution for 30 minutes at room temperature. After washing with DPBS, reaction was performed for 30 minutes using normal horse serum (1:100, Vector Lab. Inc., CA, USA) in order to prevent nonspecific reaction that might occur during the staining. […] The number of cells responding to BrdU antibody by 10% or more was counted. From a total of 100 chondrocytes on the articular surface of the tibia and the femur, the percentage of BrdU-positive cells was measured using an automatic image analyzer. […]
A general note: Uptake of a labelled nucleoside into DNA is a usual measure of proliferation.

This note sets out measurements from patent publication US20120121545A1, “Pharmaceutical Composition For Bone Disease Treatment Or Countering Inflammation, Comprising Cartilage Stem Cells As An Active Principle” (CoreStem Co., Ltd., priority 2009, published 2012).

In the case of `O=C(O)Cc1ccccc1Nc1c(Cl)cccc1Cl` [Control drug, diclofenac sodium], in assay [1], the “reduced knee joint thickness as compared to the osteoarthritis control group” value worked out at 5.79%. In addition, in assay [2], the “Maximum knee joint angle” value is listed as 60.75 ± 6.78 ° and the “knee joint angle decreased as compared to the normal control group” value is 18.18%. In addition, in assay [3], the “Mankin score of the femur, decrease as compared to the osteoarthritis-induced control group” value was determined as 27.85%; the “Mankin score of the femur: Clones” value worked out at 2.38 ± 0.92; the “Mankin score of the femur: Hypocellularity” value was 1.38 ± 0.52; the “Mankin score of the femur: Safranin O” value is on record as 1.25 ± 0.46. In addition, in assay [3], the “Mankin score of the femur: Sum (Max = 12)” value is reported as 7.13 ± 1.36; the “Mankin score of the femur: Surface” value turned out to be 2.13 ± 0.35; the “Mankin score of the tibia, decrease as compared to the osteoarthritis-induced control group” value is given as 20.59%; the “Mankin score of the tibia: Clones” value came to 1.75 ± 0.71. For the same compound, in assay [3], the “Mankin score of the tibia: Hypocellularity” value is 1.63 ± 0.52, the “Mankin score of the tibia: Safranin O” value was 1.38 ± 0.74, the “Mankin score of the tibia: Sum (Max = 12)” value worked out at 6.75 ± 1.16 and the “Mankin score of the tibia: Surface” value turned out to be 2.00 ± 0.53. In assay [4], the “Knee cartilage thickness, Femur” value came out at 409.48 ± 69.80; the “cartilage thickness of the femur, increase as compared to the osteoarthritis-induced control group” value is 35.11%; the “cartilage thickness of the tibia, increase as compared to the osteoarthritis-induced control group” value worked out at 68.81%. Also, in assay [5], the “Number of BrdU-positive cells/100 chondrocytes, Femur” value is recorded as 8.63 ± 4.03 /100 chondrocytes; the “Number of BrdU-positive cells/100 chondrocytes, Tibia” value is given as 8.13 ± 3.52 /100 chondrocytes; the “number of BrdU-positive cells on the articular surface of the femur, increase as compared to the osteoarthritis-induced control group” value worked out at 9.52%; the “number of BrdU-positive cells on the articular surface of the tibia, increase as compared to the osteoarthritis-induced control group” value amounted to 1.56%.
